Results reported in patent KR20230138688A, “Halenaquinol sulfate를 유효성분으로 포함하는 베타아밀로이드 응집으로 유발되는 질환의 예방 또는 치료용 약학적 조성물” (priority 2022, dated 2023).

Tests used:
[1] = molecular target: T1, beta-amyloid Aβ42 (베타아밀로이드(Aβ)42) (Homo sapiens, UniProt P05067); experiment: Inhibition of beta-amyloid (Aβ42) aggregation, Thioflavin T fluorescence; assay type: biochemical; conditions: Aβ42 10 μM; 37 °C, 24 h; ThT 45 μM; 485 nm / 528 nm
T1 construct: Amyloid β 1-42 (Aβ42) 단백질은 DMSO에 1 mM으로 녹여

[2] = system: inhibition of synaptic plasticity (LTP) by beta-amyloid (베타아밀로이드에 의한 시냅스 가소성(LTP) 억제); experiment: Improvement of beta-amyloid-induced inhibition of synaptic plasticity (LTP), electrophysiology in hippocampal slices; conditions: ICR mouse hippocampal slices; halenaquinol sulfate 10 μM 30 min, then with oligomeric beta-amyloid 1 μM for 2 h; HFS
[3] = molecular target: Acetylcholinesterase (AChE) (Electrophorus electricus, UniProt O42275); experiment: Acetylcholinesterase (AChE) inhibition, Ellman method; assay type: biochemical; conditions: acetylthiocholine substrate, DTNB, 405 nm, pH 8.2
Acetylcholinesterase (AChE), sequence (O42275 whole entry): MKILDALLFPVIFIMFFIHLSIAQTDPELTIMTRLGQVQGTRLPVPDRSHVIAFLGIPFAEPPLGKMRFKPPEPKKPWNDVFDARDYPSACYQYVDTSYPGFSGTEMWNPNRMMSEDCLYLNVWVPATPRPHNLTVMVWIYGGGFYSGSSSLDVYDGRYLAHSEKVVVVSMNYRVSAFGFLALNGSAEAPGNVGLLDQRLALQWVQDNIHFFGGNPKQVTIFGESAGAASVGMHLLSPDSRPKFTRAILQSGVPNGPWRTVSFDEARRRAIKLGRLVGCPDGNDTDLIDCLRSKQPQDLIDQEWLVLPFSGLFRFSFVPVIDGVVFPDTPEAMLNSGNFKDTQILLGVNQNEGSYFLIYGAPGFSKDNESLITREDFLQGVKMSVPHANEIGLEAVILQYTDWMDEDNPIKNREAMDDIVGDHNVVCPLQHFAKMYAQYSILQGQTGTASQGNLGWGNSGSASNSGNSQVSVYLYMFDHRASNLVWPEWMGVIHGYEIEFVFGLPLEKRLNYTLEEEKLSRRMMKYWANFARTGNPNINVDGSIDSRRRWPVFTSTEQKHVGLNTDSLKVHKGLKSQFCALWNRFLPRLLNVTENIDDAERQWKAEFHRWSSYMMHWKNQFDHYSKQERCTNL

[4] = molecular target: T2, beta-amyloid Aβ42 aggregates (베타아밀로이드 응집체) (Homo sapiens, UniProt P05067); experiment: Disaggregation of preformed beta-amyloid (Aβ42) aggregates, Thioflavin T fluorescence; assay type: biochemical; conditions: Aβ42 pre-incubated 24 h, then 24 h with compound at 37 °C; Aβ42 10 μM; ThT 45 μM
T2 construct: Amyloid β 1-42 (Aβ42) 단백질은 DMSO에 1 mM으로 녹여
T2 sequence (P05067 672-713): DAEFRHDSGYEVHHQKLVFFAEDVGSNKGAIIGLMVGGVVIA

T1 sequence (P05067 672-713): as above

## Halenaquinol sulfate
[1]
  inhibitory activity against beta-amyloid aggregation: 농도 의존적으로 베타아밀로이드(10 μM)의 응집에 대해 저해활성
[2]
  suppression of the effect of oligomeric beta-amyloid on LTP: 베타아밀로이드의 효과를 유의적으로 억제
[3]
  IC50: 17.9 µM
  inhibition of acetylcholinesterase activity: 농도의존적으로 acetylcholinesterase 활성을 저해
[4]
  disaggregation of already aggregated beta-amyloid: 농도 의존적으로 이미 응집된 베타아밀로이드 응집체를 분해함
